From patent publication US10927141B2 (priority 2018, dated 2021)
Read-outs that look alike come from different tables or passages of the source.

Assays:
[1] = Dynamic vapor sorption (DVS), gravimetric moisture sorption; assay type: physicochemical; conditions: at 80% Relative Humidity, 25° C.
Experimental: Dynamic Vapor Sorption (DVS) were collected conducted using an SMS DVS Advantage 1 system. For each sample analyzed approximately 10 mg of material was transferred into the DVS instrument and recorded the weight change with respect to the atmospheric humidity at 25° C. using the following parameters: Equilibrium dm/dt: 0.01%/min, (for min: 10 min and max: 180 min); drying setting were 0% RH for 120 min; RH (%) measurement step at 10% and RH (%) measurement step scope of 0-90-0%.

[2] = assay type: physicochemical; conditions: 1 w
Experimental: For each salt, approximately 5 mg compound was added into an 8 mL glass vial with a multi-hole aluminum foil cap, and kept at 60° C., 40° C./75% RH for 1 week. […] Appearance by visual observation were recorded followed by purity assessment and XPRD data collection on the residual solids.

[3] = assay type: physicochemical

COCC1(O)CCC2(C)C(CCC3C2CCC2(C)C(C(=O)Cn4ccnc4)CCC32)C1.O=C(O)c1ccc2ccccc2c1O (stereo not drawn)
gravimetric moisture sorption [1]: about 4.6 % (by weight)

COCC1(O)CCC2(C)C(CCC3C2CCC2(C)C(C(=O)Cn4ccnc4)CCC32)C1.O=C1OC(C(O)CO)C(O)=C1O (stereo not drawn) [Compound 1 Ascorbate (Form A)]
gravimetric moisture sorption [1]: about 5.7 % (by weight)

COC[C@@]1(O)CC[C@@]2(C)[C@@H](CC[C@@H]3[C@@H]2CC[C@]2(C)[C@@H](C(=O)Cn4ccnc4)CC[C@@H]32)C1.O=S(=O)(O)c1ccccc1 [Compound 1 Besylate (Form A)]
gravimetric moisture sorption [1]: about 4.0 % (by weight)

COC[C@@]1(O)CC[C@@]2(C)[C@@H](CC[C@@H]3[C@@H]2CC[C@]2(C)[C@@H](C(=O)Cn4ccnc4)CC[C@@H]32)C1.O=S(=O)(O)NC1CCCCC1 [Compound 1 Cyclamate (Form A)]
gravimetric moisture sorption [1]: about 7.3 % (by weight)

COCC1(O)CCC2(C)C(CCC3C2CCC2(C)C(C(=O)Cn4ccnc4)CCC32)C1.O=CC(O)C(O)C(O)C(O)C(=O)O [Compound 1 D-Glucuronate (Form A)]
gravimetric moisture sorption [1]: about 1.4 % (by weight)

COCC1(O)CCC2(C)C(CCC3C2CCC2(C)C(C(=O)Cn4ccnc4)CCC32)C1.O=C(O)C(Cl)Cl (stereo not drawn) [Compound 1 Dichloroacetate (Form A)]
gravimetric moisture sorption [1]: about 1.8 % (by weight)

CCS(=O)(=O)O.COCC1(O)CCC2(C)C(CCC3C2CCC2(C)C(C(=O)Cn4ccnc4)CCC32)C1 (stereo not drawn) [Compound 1 Ethanesulfonate (Form A)]
gravimetric moisture sorption [1]: about 1.4 % (by weight)

COCC1(O)CCC2(C)C(CCC3C2CCC2(C)C(C(=O)Cn4ccnc4)CCC32)C1.O=C(O)c1cc(O)ccc1O (stereo not drawn) [Compound 1 Gentisate (Form A)]
gravimetric moisture sorption [1]: about 3.1 % (by weight)

COCC1(O)CCC2(C)C(CCC3C2CCC2(C)C(C(=O)Cn4ccnc4)CCC32)C1.Cl (stereo not drawn) [Compound 1 Hydrochloride (Form A)]
gravimetric moisture sorption [1]: about 3.6 % (by weight)

COC(=O)c1ccc2c(c1)NC(=O)/C2=C(\Nc1ccc(N(C)C(=O)CN2CCN(C)CC2)cc1)c1ccccc1.Cl [Compound 1 Hydrochloride (Form B)]
gravimetric moisture sorption [1]: about 2.9 % (by weight)

COC(=O)c1ccc2c(c1)NC(=O)/C2=C(\Nc1ccc(N(C)C(=O)CN2CCN(C)CC2)cc1)c1ccccc1.Cl [Compound 1 Hydrochloride (Form C)]
gravimetric moisture sorption [1]: about 0.7 % (by weight)

COC[C@@]1(O)CC[C@@]2(C)[C@@H](CC[C@@H]3[C@@H]2CC[C@]2(C)[C@@H](C(=O)Cn4ccnc4)CC[C@@H]32)C1.O=S(=O)(O)CCO [Compound 1 Isethionate (Form A)]
gravimetric moisture sorption [1]: about 4.9 % (by weight)

COC[C@@]1(O)CC[C@@]2(C)[C@@H](CC[C@@H]3[C@@H]2CC[C@]2(C)[C@@H](C(=O)Cn4ccnc4)CC[C@@H]32)C1.O=C(O)C(O)C(O)C(=O)O [Compound 1 L(+)-Tartrate (Form A)]
gravimetric moisture sorption [1]: about 1.6 % (by weight)

COCC1(O)CCC2(C)C(CCC3C2CCC2(C)C(C(=O)Cn4ccnc4)CCC32)C1.O=C(O)C(O)C(O)C(=O)O (stereo not drawn) [Compound 1 L(+)-Tartrate (Form B)]
gravimetric moisture sorption [1]: about 1.7 % (by weight)

COCC1(O)CCC2(C)C(CCC3C2CCC2(C)C(C(=O)Cn4ccnc4)CCC32)C1.O=C(O)CC(O)C(=O)O [Compound 1 L-Malate (Form A)]
gravimetric moisture sorption [1]: about 2.0 % (by weight)

COCC1(O)CCC2(C)C(CCC3C2CCC2(C)C(C(=O)Cn4ccnc4)CCC32)C1.O=C(O)CC(O)C(=O)O [Compound 1 L-Malate (Form B)]
gravimetric moisture sorption [1]: about 3.5 % (by weight)

COC(=O)c1ccc2c(c1)NC(=O)/C2=C(\Nc1ccc(N(C)C(=O)CN2CCN(C)CC2)cc1)c1ccccc1.CS(=O)(=O)O [Compound 1 Mesylate (Form A)]
gravimetric moisture sorption [1]: about 3.4 % (by weight)

COC[C@@]1(O)CC[C@@]2(C)[C@@H](CC[C@@H]3[C@@H]2CC[C@]2(C)[C@@H](C(=O)Cn4ccnc4)CC[C@@H]32)C1.O=S(=O)(O)c1ccc2ccccc2c1 [Compound 1 Napsylate (Form A)]
gravimetric moisture sorption [1]: about 3.9 % (by weight)

COCC1(O)CCC2(C)C(CCC3C2CCC2(C)C(C(=O)Cn4ccnc4)CCC32)C1.Nc1ccc(C(=O)O)c(O)c1 (stereo not drawn) [Compound 1 P-Aminosalicylate (Form A)]
gravimetric moisture sorption [1]: about 4.0 % (by weight)

COCC1(O)CCC2(C)C(CCC3C2CCC2(C)C(C(=O)Cn4ccnc4)CCC32)C1.O=P(O)(O)O (stereo not drawn) [Compound 1 Phosphate (Form A)]
gravimetric moisture sorption [1]: about 2.1 % (by weight)

COCC1(O)CCC2(C)C(CCC3C2CCC2(C)C(C(=O)Cn4ccnc4)CCC32)C1.CS(=O)(=O)O (stereo not drawn) [Mesylate (Form A)]
Final purity ([2]; 40° C./75% RH): 99.4
XRPD patterns ([2]; 40° C./75% RH): Form D
Final purity ([2]; 60° C.): 99.4
XRPD patterns ([2]; 60° C.): Form A
Final purity ([3]; 1.2 million lux-hrs): 99.3
XRPD patterns ([3]; 1.2 million lux-hrs): Form A
Final purity ([3]; Dark control): 99.4
XRPD patterns ([3]; Dark control): Form A

COCC1(O)CCC2(C)C(CCC3C2CCC2(C)C(C(=O)Cn4ccnc4)CCC32)C1.O=S(=O)(O)c1ccc2ccccc2c1 (stereo not drawn) [Napsylate (Form A)]
Final purity ([2]; 40° C./75% RH): 99.1
XRPD patterns ([2]; 40° C./75% RH): Form A
Final purity ([2]; 60° C.): 99.1
XRPD patterns ([2]; 60° C.): Form A
Final purity ([3]; 1.2 million lux-hrs): 99.0
XRPD patterns ([3]; 1.2 million lux-hrs): Form A
Final purity ([3]; Dark control): 99.1
XRPD patterns ([3]; Dark control): Form A

COC[C@@]1(O)CC[C@@]2(C)[C@@H](CC[C@@H]3[C@@H]2CC[C@]2(C)[C@@H](C(=O)Cn4ccnc4)CC[C@@H]32)C1.O=C(O)C(=O)O [Oxalate (Form A)]
Final purity ([2]; 40° C./75% RH): 98.4
XRPD patterns ([2]; 40° C./75% RH): Form A
Final purity ([2]; 60° C.): 98.3
XRPD patterns ([2]; 60° C.): Form A
Final purity ([3]; 1.2 million lux-hrs): 98.2
XRPD patterns ([3]; 1.2 million lux-hrs): Form A
Final purity ([3]; Dark control): 98.9
XRPD patterns ([3]; Dark control): Form A

COCC1(O)CCC2(C)C(CCC3C2CCC2(C)C(C(=O)Cn4ccnc4)CCC32)C1.Nc1ccc(C(=O)O)c(O)c1 (stereo not drawn) [P-aminosalicylate (Form A)]
Final purity ([2]; 40° C./75% RH): 97.0
XRPD patterns ([2]; 40° C./75% RH): Form A
Final purity ([2]; 60° C.): 91.5
XRPD patterns ([2]; 60° C.): Form A
Final purity ([3]; 1.2 million lux-hrs): 95.7
XRPD patterns ([3]; 1.2 million lux-hrs): Form A
Final purity ([3]; Dark control): 95.8
XRPD patterns ([3]; Dark control): Form A

COC[C@@]1(O)CC[C@@]2(C)[C@@H](CC[C@@H]3[C@@H]2CC[C@]2(C)[C@@H](C(=O)Cn4ccnc4)CC[C@@H]32)C1.O=P(O)(O)O [Phosphate (Form A)]
Final purity ([2]; 40° C./75% RH): 99.2
XRPD patterns ([2]; 40° C./75% RH): Form A
Final purity ([2]; 60° C.): 99.2
XRPD patterns ([2]; 60° C.): Form A
Final purity ([3]; 1.2 million lux-hrs): 98.9
XRPD patterns ([3]; 1.2 million lux-hrs): Form A
Final purity ([3]; Dark control): 99.2
XRPD patterns ([3]; Dark control): Form A

COC[C@@]1(O)CC[C@@]2(C)[C@@H](CC[C@@H]3[C@@H]2CC[C@]2(C)[C@@H](C(=O)Cn4ccnc4)CC[C@@H]32)C1.O=S(=O)(O)O [Sulfate (Form A)]
Final purity ([2]; 40° C./75% RH): 97.5
XRPD patterns ([2]; 40° C./75% RH): Form A
Final purity ([2]; 60° C.): 96.2
XRPD patterns ([2]; 60° C.): Form A
Final purity ([3]; 1.2 million lux-hrs): 97.1
XRPD patterns ([3]; 1.2 million lux-hrs): Form A
Final purity ([3]; Dark control): 97.6
XRPD patterns ([3]; Dark control): Form A

COCC1(O)CCC2(C)C(CCC3C2CCC2(C)C(C(=O)Cn4ccnc4)CCC32)C1.Cc1ccc(S(=O)(=O)O)cc1 (stereo not drawn) [Tosylate (Form A)]
Final purity ([2]; 40° C./75% RH): 99.5
Final purity ([2]; 60° C.): 99.5
XRPD patterns ([2]; 60° C.): Form A
Final purity ([3]; 1.2 million lux-hrs): 99.0
XRPD patterns ([3]; 1.2 million lux-hrs): Form A
Final purity ([3]; Dark control): 99.5
XRPD patterns ([3]; Dark control): Form A
